Measured values: ChEMBL document CHEMBL4507277

How the values were obtained:
[1] = target: Vascular endothelial growth factor receptor 3 (Homo sapiens) (UniProt P35916); details: Compound concentration 1000.0 nM
[2] = target: Muscle, skeletal receptor tyrosine-protein kinase (Homo sapiens) (UniProt O15146); details: Compound concentration 1000.0 nM
[3] = target: Insulin receptor-related protein (Homo sapiens) (UniProt P14616); details: Compound concentration 1000.0 nM
[4] = target: Interleukin-1 receptor-associated kinase 4 (Homo sapiens) (UniProt Q9NWZ3); details: Compound concentration 1000.0 nM
[5] = target: Serine/threonine-protein kinase Sgk3 (Homo sapiens) (UniProt Q96BR1); details: Compound concentration 1000.0 nM
[6] = target: Serine/threonine-protein kinase MRCK gamma (Homo sapiens) (UniProt Q6DT37); details: Compound concentration 1000.0 nM
[7] = target: Phosphatidylinositol 4,5-bisphosphate 3-kinase catalytic subunit delta isoform (Homo sapiens) (UniProt O00329); details: Compound concentration 1000.0 nM
[8] = target: Protein kinase C eta type (Homo sapiens) (UniProt P24723); details: Compound concentration 1000.0 nM
[9] = target: Ephrin type-A receptor 2 (Homo sapiens) (UniProt P29317); details: Compound concentration 1000.0 nM
[10] = target: Phosphatidylinositol 3-kinase C2 domain-containing subunit gamma (Homo sapiens) (UniProt O75747); details: Compound concentration 1000.0 nM
[11] = target: Serine/threonine-protein kinase Nek9 (Homo sapiens) (UniProt Q8TD19); details: Compound concentration 1000.0 nM
[12] = target: LIM domain kinase 2 (Homo sapiens) (UniProt P53671); details: Compound concentration 1000.0 nM
[13] = target: Calcium/calmodulin-dependent protein kinase type 1B (Homo sapiens) (UniProt Q6P2M8); details: Compound concentration 1000.0 nM
[14] = test system: Receptor-type tyrosine-protein kinase FLT3 (Homo sapiens), P36888 [D835H]; details: Compound concentration 1000.0 nM
[15] = target: Ribosomal protein S6 kinase alpha-2 (Homo sapiens) (UniProt Q15349); details: Compound concentration 1000.0 nM
[16] = test system: Proto-oncogene tyrosine-protein kinase receptor Ret (Homo sapiens), P07949 [M918T]; details: Compound concentration 1000.0 nM
[17] = target: LIM domain kinase 1 (Homo sapiens) (UniProt P53667); details: Compound concentration 1000.0 nM
[18] = target: Histamine H1 receptor (Homo sapiens) (UniProt P35367); details: Compound concentration 10.0 uM
[19] = target: Casein kinase II subunit alpha' (Homo sapiens) (UniProt P19784); details: Compound concentration 1000.0 nM
[20] = test system: Mast/stem cell growth factor receptor Kit (Homo sapiens), P10721 [V559D,T670I]; details: Compound concentration 1000.0 nM
[21] = target: Serine/threonine-protein kinase ULK2 (Homo sapiens) (UniProt Q8IYT8); details: Compound concentration 1000.0 nM
[22] = target: Serine/threonine-protein kinase RIO2 (Homo sapiens) (UniProt Q9BVS4); details: Compound concentration 1000.0 nM
[23] = target: Serine/threonine-protein kinase SIK2 (Homo sapiens) (UniProt Q9H0K1); details: Compound concentration 1000.0 nM
[24] = test system: Mast/stem cell growth factor receptor Kit (Homo sapiens), P10721 [V559D]; details: Compound concentration 1000.0 nM
[25] = target: Cyclin-dependent kinase 4 (Homo sapiens) (UniProt P11802); details: Compound concentration 1000.0 nM
[26] = target: Receptor-interacting serine/threonine-protein kinase 1 (Homo sapiens) (UniProt Q13546); details: Compound concentration 1000.0 nM
[27] = target: Calcium/calmodulin-dependent protein kinase type II subunit delta (Homo sapiens) (UniProt Q13557); details: Compound concentration 1000.0 nM
[28] = target: Misshapen-like kinase 1 (Homo sapiens) (UniProt Q8N4C8); details: Compound concentration 1000.0 nM
[29] = target: Serine/threonine-protein kinase 36 (Homo sapiens) (UniProt Q9NRP7); details: Compound concentration 1000.0 nM
[30] = target: Tyrosine-protein kinase Tec (Homo sapiens) (UniProt P42680); details: Compound concentration 1000.0 nM
[31] = target: Calcium-dependent protein kinase 1 (Plasmodium falciparum) (UniProt P62344); details: Compound concentration 1000.0 nM
[32] = target: Histamine H4 receptor (Homo sapiens) (UniProt Q9H3N8); details: Compound concentration 10.0 uM
[33] = target: Mitogen-activated protein kinase kinase kinase kinase 2 (Homo sapiens) (UniProt Q12851); details: Compound concentration 1000.0 nM
[34] = target: Tyrosine-protein kinase HCK (Homo sapiens) (UniProt P08631); details: Compound concentration 1000.0 nM
[35] = test system: Receptor-type tyrosine-protein kinase FLT3 (Homo sapiens), P36888 [K663Q]; details: Compound concentration 1000.0 nM
[36] = target: Receptor tyrosine-protein kinase erbB-3 (Homo sapiens) (UniProt P21860); details: Compound concentration 1000.0 nM
[37] = target: Dual specificity protein kinase TTK (Homo sapiens) (UniProt P33981); details: Compound concentration 1000.0 nM
[38] = target: Receptor-interacting serine/threonine-protein kinase 2 (Homo sapiens) (UniProt O43353); details: Compound concentration 1000.0 nM
[39] = target: Dual specificity tyrosine-phosphorylation-regulated kinase 2 (Homo sapiens) (UniProt Q92630); details: Compound concentration 1000.0 nM
[40] = target: Alpha-1B adrenergic receptor (Homo sapiens) (UniProt P35368); details: Compound concentration 10.0 uM
[41] = target: Beta-adrenergic receptor kinase 1 (Homo sapiens) (UniProt P25098); details: Compound concentration 1000.0 nM
[42] = test system: Tyrosine-protein kinase ABL1 (Homo sapiens), P00519 [Y253F]; details: Compound concentration 1000.0 nM
[43] = target: Fibroblast growth factor receptor 4 (Homo sapiens) (UniProt P22455); details: Compound concentration 1000.0 nM
[44] = test system: Tyrosine-protein kinase ABL1 (Homo sapiens), P00519 [Q252H]; details: Compound concentration 1000.0 nM
[45] = target: Mitogen-activated protein kinase kinase kinase 12 (Homo sapiens) (UniProt Q12852); details: Compound concentration 1000.0 nM

Chain of Beta-adrenergic receptor kinase 1 (Homo sapiens) (P25098 whole entry): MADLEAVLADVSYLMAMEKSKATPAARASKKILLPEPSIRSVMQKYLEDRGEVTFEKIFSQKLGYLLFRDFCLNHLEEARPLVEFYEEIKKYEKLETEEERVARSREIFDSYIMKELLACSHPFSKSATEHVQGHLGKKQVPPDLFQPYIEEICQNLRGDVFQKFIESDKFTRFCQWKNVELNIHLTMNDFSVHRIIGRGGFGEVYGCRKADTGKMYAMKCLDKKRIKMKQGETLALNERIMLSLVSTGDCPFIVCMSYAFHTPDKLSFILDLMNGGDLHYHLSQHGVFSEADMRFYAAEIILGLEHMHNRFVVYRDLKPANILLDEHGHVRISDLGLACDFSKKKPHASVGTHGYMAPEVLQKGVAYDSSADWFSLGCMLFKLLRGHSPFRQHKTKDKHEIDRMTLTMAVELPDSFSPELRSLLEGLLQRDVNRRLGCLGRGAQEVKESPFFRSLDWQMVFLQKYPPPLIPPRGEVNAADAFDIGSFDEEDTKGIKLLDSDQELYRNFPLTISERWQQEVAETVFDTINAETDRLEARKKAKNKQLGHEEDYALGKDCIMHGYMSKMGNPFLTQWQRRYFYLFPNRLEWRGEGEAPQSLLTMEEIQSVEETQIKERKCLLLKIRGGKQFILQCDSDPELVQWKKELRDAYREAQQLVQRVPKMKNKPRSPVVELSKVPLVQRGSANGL
Chain of Serine/threonine-protein kinase MRCK gamma (Homo sapiens) (Q6DT37 whole entry, canonical isoform): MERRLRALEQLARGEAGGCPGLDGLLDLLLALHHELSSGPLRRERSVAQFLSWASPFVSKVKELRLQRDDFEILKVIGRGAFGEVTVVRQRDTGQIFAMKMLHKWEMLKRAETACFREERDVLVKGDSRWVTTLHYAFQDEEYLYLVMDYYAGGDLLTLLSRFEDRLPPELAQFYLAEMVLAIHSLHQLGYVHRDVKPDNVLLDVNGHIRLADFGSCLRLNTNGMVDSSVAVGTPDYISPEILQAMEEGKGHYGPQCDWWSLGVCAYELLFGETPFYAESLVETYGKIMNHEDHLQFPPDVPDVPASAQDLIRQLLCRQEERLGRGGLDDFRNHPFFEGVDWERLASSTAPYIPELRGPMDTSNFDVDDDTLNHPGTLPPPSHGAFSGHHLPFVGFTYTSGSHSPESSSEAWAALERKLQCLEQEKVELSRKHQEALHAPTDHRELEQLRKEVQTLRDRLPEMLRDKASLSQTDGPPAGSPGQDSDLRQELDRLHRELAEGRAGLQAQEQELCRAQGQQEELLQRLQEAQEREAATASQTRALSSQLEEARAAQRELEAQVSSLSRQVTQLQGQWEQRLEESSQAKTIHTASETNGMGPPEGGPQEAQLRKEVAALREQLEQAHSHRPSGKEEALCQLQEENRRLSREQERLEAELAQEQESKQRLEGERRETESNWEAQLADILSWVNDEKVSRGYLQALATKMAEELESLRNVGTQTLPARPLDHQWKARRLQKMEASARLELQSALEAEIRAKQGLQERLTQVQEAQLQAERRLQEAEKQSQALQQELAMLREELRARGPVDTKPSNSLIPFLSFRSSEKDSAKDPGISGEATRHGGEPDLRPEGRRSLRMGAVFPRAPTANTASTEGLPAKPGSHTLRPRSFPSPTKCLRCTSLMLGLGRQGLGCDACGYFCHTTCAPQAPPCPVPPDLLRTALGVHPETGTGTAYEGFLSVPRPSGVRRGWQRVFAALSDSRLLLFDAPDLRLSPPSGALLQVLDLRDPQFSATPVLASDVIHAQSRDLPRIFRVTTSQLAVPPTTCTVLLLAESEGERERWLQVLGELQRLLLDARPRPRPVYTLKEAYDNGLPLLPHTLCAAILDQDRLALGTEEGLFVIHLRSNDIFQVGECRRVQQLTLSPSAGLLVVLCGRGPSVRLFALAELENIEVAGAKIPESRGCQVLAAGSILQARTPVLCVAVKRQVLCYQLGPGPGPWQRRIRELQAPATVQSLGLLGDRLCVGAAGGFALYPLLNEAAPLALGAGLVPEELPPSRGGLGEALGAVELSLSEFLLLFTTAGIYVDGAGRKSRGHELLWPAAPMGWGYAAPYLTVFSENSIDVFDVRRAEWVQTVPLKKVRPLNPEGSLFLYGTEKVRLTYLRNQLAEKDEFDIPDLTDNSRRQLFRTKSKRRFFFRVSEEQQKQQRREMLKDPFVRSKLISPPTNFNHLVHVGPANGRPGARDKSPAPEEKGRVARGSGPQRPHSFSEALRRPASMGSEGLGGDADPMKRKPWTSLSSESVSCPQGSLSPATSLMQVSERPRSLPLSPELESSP
Chain of Calcium/calmodulin-dependent protein kinase type II subunit delta (Homo sapiens) (Q13557 whole entry): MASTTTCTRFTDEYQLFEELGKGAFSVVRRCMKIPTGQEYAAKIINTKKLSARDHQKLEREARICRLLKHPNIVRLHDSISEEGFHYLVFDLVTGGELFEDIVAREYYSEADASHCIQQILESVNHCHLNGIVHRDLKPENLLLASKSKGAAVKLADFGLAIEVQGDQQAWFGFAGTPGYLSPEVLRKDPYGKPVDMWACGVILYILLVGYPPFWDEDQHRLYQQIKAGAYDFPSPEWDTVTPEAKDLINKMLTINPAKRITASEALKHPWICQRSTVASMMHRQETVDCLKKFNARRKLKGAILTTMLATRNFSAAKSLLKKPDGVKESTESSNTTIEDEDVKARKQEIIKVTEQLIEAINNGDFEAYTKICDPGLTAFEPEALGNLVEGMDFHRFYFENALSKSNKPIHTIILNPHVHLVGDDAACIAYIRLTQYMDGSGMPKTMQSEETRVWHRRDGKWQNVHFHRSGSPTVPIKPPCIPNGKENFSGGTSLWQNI
Chain of Mitogen-activated protein kinase kinase kinase kinase 2 (Homo sapiens) (Q12851 whole entry): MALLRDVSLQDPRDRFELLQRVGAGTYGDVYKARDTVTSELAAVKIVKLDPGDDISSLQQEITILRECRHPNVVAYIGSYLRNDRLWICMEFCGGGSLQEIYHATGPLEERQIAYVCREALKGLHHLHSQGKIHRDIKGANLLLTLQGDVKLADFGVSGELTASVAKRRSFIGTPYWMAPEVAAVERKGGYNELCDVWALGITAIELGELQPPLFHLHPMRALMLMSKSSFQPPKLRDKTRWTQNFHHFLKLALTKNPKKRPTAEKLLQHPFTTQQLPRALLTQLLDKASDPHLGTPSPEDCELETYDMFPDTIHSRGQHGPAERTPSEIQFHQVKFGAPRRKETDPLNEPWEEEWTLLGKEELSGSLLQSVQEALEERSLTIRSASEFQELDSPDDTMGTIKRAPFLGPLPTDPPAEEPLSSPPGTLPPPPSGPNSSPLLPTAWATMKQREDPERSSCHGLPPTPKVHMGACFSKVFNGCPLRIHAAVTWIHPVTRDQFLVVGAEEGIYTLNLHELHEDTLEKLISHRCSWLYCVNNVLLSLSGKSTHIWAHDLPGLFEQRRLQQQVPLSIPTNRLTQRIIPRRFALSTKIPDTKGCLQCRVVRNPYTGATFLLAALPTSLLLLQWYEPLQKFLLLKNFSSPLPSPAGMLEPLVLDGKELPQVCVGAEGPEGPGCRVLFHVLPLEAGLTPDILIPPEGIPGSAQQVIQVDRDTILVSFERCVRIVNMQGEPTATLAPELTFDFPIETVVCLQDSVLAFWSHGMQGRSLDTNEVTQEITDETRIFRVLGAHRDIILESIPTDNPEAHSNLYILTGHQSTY
Chain of Fibroblast growth factor receptor 4 (Homo sapiens) (P22455 22-802 limits assumed): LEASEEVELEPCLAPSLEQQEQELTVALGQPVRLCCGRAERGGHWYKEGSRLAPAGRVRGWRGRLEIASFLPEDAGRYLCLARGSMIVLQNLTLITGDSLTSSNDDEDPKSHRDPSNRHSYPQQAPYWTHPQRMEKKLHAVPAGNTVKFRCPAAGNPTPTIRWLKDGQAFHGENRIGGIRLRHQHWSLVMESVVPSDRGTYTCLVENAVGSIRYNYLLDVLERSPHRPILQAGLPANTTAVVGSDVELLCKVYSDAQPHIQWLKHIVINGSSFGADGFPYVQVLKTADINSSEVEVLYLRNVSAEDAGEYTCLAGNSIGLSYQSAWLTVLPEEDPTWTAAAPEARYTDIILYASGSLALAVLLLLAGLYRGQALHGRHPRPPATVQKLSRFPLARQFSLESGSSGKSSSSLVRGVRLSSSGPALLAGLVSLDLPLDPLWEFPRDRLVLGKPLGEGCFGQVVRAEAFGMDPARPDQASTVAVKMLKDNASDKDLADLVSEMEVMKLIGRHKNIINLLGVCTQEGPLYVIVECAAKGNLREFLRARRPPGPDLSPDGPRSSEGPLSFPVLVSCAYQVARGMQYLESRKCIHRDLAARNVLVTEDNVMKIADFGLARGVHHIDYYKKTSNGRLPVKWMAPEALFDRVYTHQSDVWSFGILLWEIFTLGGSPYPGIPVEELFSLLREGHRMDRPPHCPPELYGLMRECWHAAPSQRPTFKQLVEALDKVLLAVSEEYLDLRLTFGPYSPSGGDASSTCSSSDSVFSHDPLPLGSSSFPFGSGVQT
Chain of Protein kinase C eta type (Homo sapiens) (P24723 whole entry): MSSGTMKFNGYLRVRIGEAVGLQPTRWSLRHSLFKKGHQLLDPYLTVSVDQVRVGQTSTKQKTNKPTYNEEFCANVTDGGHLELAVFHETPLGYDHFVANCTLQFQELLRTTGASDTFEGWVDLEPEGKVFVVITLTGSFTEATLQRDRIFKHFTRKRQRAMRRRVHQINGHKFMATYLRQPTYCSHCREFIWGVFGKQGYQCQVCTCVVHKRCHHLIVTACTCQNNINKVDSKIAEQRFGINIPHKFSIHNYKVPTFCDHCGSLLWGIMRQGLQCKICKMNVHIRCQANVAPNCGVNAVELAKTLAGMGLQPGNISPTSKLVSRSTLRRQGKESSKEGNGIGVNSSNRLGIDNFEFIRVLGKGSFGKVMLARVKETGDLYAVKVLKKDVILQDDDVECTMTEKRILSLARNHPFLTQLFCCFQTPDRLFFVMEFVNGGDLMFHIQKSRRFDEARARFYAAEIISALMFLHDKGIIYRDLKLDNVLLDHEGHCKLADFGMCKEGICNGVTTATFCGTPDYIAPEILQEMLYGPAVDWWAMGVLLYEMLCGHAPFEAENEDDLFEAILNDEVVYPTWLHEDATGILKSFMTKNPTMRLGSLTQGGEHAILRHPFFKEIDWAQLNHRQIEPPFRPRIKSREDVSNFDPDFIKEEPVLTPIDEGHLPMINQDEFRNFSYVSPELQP

CCS(=O)(=O)c1cc2cc(C[C@@](O)(CC(C)(C)c3ccc(F)cc3C(N)=O)C(F)(F)F)[nH]c2cn1
inactive: residual activity [1] 90% | residual activity [2] 60% | residual activity [3] 64% | residual activity [4] 100% | residual activity [5] 79% | residual activity [6] 96% | residual activity [7] 90% | residual activity [8] 100% | residual activity [9] 67% | residual activity [10] 100% | residual activity [11] 83% | residual activity [12] 100% | residual activity [13] 85% | residual activity [14] 100% | residual activity [15] 80% | residual activity [16] 98% | residual activity [17] 100% | inhibition [18] 6.19% | residual activity [19] 83% | residual activity [20] 100% | residual activity [21] 85% | residual activity [22] 95% | residual activity [23] 100% | residual activity [24] 100% | residual activity [25] 81% | residual activity [26] 92% | residual activity [27] 81% | residual activity [28] 79% | residual activity [29] 98% | residual activity [30] 100% | residual activity [31] 99% | inhibition [32] 2.05% | residual activity [33] 80% | residual activity [34] 100% | residual activity [35] 83% | residual activity [36] 100% | residual activity [37] 78% | residual activity [38] 100% | residual activity [39] 83% | inhibition [40] 1.64% | residual activity [41] 50% | residual activity [42] 72% | residual activity [43] 100% | residual activity [44] 79% | residual activity [45] 83%

CCS(=O)(=O)c1cc2cc(C[C@](O)(CC(C)(C)c3ccc(F)cc3C(N)=O)C(F)(F)F)[nH]c2cn1
inactive: residual activity [1] 95% | residual activity [2] 94% | residual activity [3] 100% | residual activity [4] 100% | residual activity [5] 89% | residual activity [6] 100% | residual activity [7] 89% | residual activity [8] 94% | residual activity [9] 81% | residual activity [10] 100% | residual activity [11] 99% | residual activity [12] 100% | residual activity [13] 77% | residual activity [14] 100% | residual activity [15] 100% | residual activity [16] 100% | residual activity [17] 100% | inhibition [18] 4.27% | residual activity [19] 92% | residual activity [20] 100% | residual activity [21] 100% | residual activity [22] 100% | residual activity [23] 100% | residual activity [24] 100% | residual activity [25] 100% | residual activity [26] 100% | residual activity [27] 100% | residual activity [28] 89% | residual activity [29] 100% | residual activity [30] 90% | residual activity [31] 100% | inhibition [32] 3.88% | residual activity [33] 96% | residual activity [34] 100% | residual activity [35] 100% | residual activity [36] 100% | residual activity [37] 99% | residual activity [38] 67% | residual activity [39] 92% | inhibition [40] 3.39% | residual activity [41] 84% | residual activity [42] 93% | residual activity [43] 72% | residual activity [44] 100% | residual activity [45] 100%
